According to patent publication US9340590B2 (priority 2011, dated 2016):
Read-outs that look alike come from different tables or passages of the source. Positions of bridges follow the written chain, without caps; N, C: chain ends. Non-standard residues stand in square brackets, D forms with d. Residues, ends and D or L forms follow the SMILES beside them. 1Nal = N[C@@H](Cc1cccc2ccccc12)C(=O)O

Columns and labels:
Assay in all cases: cell-based
[1] = biological target: hNav1.7 (Homo sapiens, UniProt Q15858); type: cell-based; conditions: IonWorks Quattro, read-out: IWQ Use Nav1.7
[2] = biological target: hNav1.5 (Homo sapiens, UniProt Q14524)
hNav1.5, sequence (Q14524 whole entry, looked up): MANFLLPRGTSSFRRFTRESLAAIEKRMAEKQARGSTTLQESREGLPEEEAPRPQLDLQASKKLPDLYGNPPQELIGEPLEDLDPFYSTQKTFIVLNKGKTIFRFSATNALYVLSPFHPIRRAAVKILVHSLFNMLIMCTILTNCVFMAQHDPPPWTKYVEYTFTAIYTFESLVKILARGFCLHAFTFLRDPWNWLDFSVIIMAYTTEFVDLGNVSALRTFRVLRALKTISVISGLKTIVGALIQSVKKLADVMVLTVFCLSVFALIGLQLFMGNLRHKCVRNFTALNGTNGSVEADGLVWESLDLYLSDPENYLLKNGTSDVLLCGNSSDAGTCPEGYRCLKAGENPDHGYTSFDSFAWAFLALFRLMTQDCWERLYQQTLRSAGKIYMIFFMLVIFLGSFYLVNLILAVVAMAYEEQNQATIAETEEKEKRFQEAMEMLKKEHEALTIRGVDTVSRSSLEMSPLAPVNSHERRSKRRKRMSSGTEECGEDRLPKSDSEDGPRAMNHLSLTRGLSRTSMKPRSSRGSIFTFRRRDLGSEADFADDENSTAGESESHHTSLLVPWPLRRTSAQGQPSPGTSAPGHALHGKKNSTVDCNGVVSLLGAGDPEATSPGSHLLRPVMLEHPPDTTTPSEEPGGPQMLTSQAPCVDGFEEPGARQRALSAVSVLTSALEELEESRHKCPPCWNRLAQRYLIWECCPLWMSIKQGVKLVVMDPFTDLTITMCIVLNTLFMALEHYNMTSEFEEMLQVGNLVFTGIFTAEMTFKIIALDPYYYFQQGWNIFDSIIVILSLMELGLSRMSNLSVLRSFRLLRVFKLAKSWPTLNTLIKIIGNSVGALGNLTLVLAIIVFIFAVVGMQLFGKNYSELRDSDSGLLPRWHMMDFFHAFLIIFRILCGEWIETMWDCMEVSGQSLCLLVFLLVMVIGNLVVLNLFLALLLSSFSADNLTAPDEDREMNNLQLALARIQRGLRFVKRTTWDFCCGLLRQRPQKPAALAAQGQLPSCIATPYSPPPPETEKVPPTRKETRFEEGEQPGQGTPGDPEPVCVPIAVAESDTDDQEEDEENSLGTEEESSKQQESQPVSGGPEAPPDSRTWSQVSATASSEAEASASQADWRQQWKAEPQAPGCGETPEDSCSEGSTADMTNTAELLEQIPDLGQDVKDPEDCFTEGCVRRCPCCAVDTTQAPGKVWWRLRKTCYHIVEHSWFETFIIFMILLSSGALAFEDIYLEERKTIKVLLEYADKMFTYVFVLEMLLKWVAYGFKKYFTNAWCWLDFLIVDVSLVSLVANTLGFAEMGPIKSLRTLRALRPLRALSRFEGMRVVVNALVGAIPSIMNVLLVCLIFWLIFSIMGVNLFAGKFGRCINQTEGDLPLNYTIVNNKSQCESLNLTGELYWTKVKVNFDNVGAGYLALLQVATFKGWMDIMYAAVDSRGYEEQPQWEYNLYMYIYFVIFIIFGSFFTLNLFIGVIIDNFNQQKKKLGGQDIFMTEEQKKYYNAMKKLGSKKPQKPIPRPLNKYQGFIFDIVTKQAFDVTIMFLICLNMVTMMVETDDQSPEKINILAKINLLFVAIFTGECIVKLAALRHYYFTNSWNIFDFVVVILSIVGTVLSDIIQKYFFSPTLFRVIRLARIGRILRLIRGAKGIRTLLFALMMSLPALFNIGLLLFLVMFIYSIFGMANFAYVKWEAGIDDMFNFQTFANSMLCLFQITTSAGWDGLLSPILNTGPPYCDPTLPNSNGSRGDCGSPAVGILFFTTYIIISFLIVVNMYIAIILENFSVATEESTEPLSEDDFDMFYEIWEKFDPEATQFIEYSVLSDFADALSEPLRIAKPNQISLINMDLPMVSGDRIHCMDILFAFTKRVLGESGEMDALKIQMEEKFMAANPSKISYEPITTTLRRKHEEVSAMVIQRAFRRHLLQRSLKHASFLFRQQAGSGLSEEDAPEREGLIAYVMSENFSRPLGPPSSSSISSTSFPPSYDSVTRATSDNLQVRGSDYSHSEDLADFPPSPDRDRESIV

[3] = biological target: hNav1.3 (Homo sapiens, UniProt Q9NY46); conditions: IonWorks Quattro, read-out: IWQ Use Nav1.3
hNav1.3, sequence (Q9NY46 whole entry, looked up): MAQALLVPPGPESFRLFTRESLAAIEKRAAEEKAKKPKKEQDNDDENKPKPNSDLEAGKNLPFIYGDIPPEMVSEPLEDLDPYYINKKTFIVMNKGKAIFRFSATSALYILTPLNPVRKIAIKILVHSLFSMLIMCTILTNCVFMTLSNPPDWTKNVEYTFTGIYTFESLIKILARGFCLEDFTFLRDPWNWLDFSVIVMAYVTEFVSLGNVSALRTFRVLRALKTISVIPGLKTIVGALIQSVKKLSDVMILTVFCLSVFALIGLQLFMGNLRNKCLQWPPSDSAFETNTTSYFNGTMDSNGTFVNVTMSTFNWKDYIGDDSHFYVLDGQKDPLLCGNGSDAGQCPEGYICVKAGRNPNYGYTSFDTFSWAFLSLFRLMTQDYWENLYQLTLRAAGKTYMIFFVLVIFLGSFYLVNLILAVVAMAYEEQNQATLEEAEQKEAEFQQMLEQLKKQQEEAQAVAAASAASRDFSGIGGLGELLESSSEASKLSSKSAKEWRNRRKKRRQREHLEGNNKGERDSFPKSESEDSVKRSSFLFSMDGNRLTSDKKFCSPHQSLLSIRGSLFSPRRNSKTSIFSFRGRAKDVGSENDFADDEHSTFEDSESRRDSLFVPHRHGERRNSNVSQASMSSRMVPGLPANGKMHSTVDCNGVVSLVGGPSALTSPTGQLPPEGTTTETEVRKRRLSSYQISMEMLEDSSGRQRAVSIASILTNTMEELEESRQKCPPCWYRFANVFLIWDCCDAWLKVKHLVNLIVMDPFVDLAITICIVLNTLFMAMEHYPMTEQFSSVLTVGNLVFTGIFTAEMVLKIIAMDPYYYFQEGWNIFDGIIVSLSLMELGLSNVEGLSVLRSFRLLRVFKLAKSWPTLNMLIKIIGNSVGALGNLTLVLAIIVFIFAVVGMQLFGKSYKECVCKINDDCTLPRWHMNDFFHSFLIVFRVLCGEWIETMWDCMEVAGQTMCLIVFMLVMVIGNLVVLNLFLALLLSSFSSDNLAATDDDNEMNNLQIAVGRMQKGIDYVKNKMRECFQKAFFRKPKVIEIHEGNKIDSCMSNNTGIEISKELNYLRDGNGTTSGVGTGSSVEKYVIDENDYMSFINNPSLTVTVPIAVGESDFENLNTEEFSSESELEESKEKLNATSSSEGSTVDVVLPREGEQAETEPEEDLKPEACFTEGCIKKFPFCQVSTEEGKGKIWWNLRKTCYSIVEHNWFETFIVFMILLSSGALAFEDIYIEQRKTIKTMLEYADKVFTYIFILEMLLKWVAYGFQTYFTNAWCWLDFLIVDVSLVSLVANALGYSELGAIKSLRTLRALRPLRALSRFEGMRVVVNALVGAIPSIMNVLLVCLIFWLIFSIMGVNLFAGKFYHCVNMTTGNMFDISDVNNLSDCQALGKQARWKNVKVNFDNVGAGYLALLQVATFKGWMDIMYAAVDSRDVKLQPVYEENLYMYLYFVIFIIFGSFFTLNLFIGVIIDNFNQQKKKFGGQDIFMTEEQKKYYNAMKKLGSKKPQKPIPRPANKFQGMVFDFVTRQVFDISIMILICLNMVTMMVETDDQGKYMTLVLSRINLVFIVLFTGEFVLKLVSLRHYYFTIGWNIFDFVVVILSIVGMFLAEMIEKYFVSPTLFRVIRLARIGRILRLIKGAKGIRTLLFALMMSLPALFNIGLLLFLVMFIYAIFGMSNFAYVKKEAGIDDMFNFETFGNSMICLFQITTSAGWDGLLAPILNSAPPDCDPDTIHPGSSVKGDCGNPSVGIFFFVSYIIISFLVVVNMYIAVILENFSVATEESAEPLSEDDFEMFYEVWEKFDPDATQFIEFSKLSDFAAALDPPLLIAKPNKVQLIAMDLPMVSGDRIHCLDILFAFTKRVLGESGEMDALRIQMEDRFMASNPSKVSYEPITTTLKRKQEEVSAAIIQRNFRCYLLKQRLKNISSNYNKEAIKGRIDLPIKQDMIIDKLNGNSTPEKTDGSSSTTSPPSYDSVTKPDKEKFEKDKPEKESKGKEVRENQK

[4] = IonWorks Quattro, use-dependent block, hNav1.5, read-out: IWQ Use Nav1.5
[5] = use-dependent protocol, hNav1.7
[6] = use-dependent protocol, hNav1.3
[7] = clamped to −110 mV, depolarized to −10 mV, 5 min after compound, n=2
[8] = IonWorks Quattro, clamped to −110 mV, depolarized to −10 mV, 5 min after compound, n=2, read-out: IWQ Use Nav1.5

## CC[C@H](C)[C@@H]1NC(=O)[C@@H]2CSSC[C@@H]3NC(=O)[C@H](C(C)C)NC(=O)[C@H](CC(C)C)NC(=O)[C@H](CC(N)=O)NC(=O)[C@@H]4CCCN4C(=O)[C@H](CCCNC(=N)N)NC(=O)[C@H](CSSC[C@H](NC(=O)[C@@H](N)CC(=O)O)C(=O)N[C@@H](CC(C)C)C(=O)NCC(=O)N[C@@H](Cc4ccccc4)C(=O)N[C@@H](CCSC)C(=O)N[C@@H](CCCNC(=N)N)C(=O)N[C@@H](CCCCN)C(=O)N2)NC(=O)[C@H](CSSC[C@@H](C(=O)N[C@@H](CCCCN)C(=O)N[C@@H](Cc2cccc4ccccc24)C(=O)N[C@H](C(=O)N[C@@H](Cc2ccccc2)C(N)=O)C(C)C)NC(=O)[C@H](Cc2c[nH]c4ccccc24)NC(=O)[C@H](CCCNC(=N)N)NC(=O)[C@H](Cc2c[nH]cn2)NC(=O)[C@H]([C@@H](C)O)NC(=O)[C@H](CCCNC(=N)N)NC(=O)[C@H](CO)NC3=O)NC(=O)[C@H](CCCCN)NC(=O)[C@H](CC(=O)O)NC(=O)[C@H](CC(N)=O)NC(=O)[C@H](CC(=O)O)NC(=O)[C@@H]2CCCN2C1=O [compound 251] (H-DCLGFMRKCIPDNDKCCRPNLVCSRTHRWCK[1Nal]VF-NH2; disulfide 2-17, 9-23, 16-30)
[1]; use-dependent block, hNav1.7
  IC50: 5 nM
[2]; [4]
  IC50: 2.56 µM
[3]; use-dependent block, hNav1.3
  IC50: 2 nM

## CC[C@H](C)[C@@H]1NC(=O)[C@@H]2CSSC[C@@H]3NC(=O)[C@H](C(C)C)NC(=O)[C@H](CC(C)C)NC(=O)[C@H](CC(N)=O)NC(=O)[C@@H]4CCCN4C(=O)[C@H](CCCNC(=N)N)NC(=O)[C@H](CSSC[C@H](NC(=O)[C@@H](N)CC(=O)O)C(=O)N[C@@H](CC(C)C)C(=O)NCC(=O)N[C@@H](C(C)C)C(=O)N[C@@H](CC(C)C)C(=O)N[C@@H](CCCNC(=N)N)C(=O)N[C@@H](CCCCN)C(=O)N2)NC(=O)[C@H](CSSC[C@@H](C(=O)N[C@@H](CCCCN)C(=O)N[C@@H](Cc2ccc(O)cc2)C(=O)N[C@H](C(=O)N[C@@H](Cc2ccccc2)C(N)=O)C(C)C)NC(=O)[C@H](Cc2c[nH]c4ccccc24)NC(=O)[C@H](CCC(=O)O)NC(=O)[C@H](Cc2c[nH]cn2)NC(=O)[C@H]([C@@H](C)O)NC(=O)[C@H](CCCNC(=N)N)NC(=O)[C@H](CO)NC3=O)NC(=O)[C@H](CCCCN)NC(=O)[C@H](CC(=O)O)NC(=O)[C@H](CC(N)=O)NC(=O)[C@H](CC(=O)O)NC(=O)[C@@H]2CCCN2C1=O [compound 709] (H-DCLGVLRKCIPDNDKCCRPNLVCSRTHEWCKYVF-NH2; disulfide 2-17, 9-23, 16-30)
[1]; [5]
  IC50: 740 nM
[2]; IonWorks Quattro, use-dependent protocol, hNav1.5, read-out: IWQ Use Nav1.5
  IC50: 43 µM
[3]; [6]
  IC50: 4800 nM

## CC[C@H](C)[C@@H]1NC(=O)[C@@H]2CSSC[C@@H]3NC(=O)[C@H](C(C)C)NC(=O)[C@H](CC(C)C)NC(=O)[C@H](CC(N)=O)NC(=O)[C@@H]4CCCN4C(=O)[C@H](CCCNC(=N)N)NC(=O)[C@H](CSSC[C@H](NC(=O)[C@@H](N)CC(=O)O)C(=O)N[C@@H](CC(C)C)C(=O)NCC(=O)N[C@@H](C)C(=O)N[C@@H](Cc4ccccc4)C(=O)N[C@@H](CCCNC(=N)N)C(=O)N[C@@H](CCCCN)C(=O)N2)NC(=O)[C@H](CSSC[C@@H](C(=O)N[C@@H](CCCCN)C(=O)N[C@@H](Cc2ccc(O)cc2)C(=O)N[C@H](C(=O)N[C@@H](Cc2ccccc2)C(=O)O)C(C)C)NC(=O)[C@H](Cc2c[nH]c4ccccc24)NC(=O)[C@H](CCCNC(=N)N)NC(=O)[C@H](Cc2c[nH]cn2)NC(=O)[C@H]([C@@H](C)O)NC(=O)[C@H](CCCNC(=N)N)NC(=O)[C@H](CO)NC3=O)NC(=O)[C@H](CCCCN)NC(=O)[C@H](CC(=O)O)NC(=O)[C@H](C)NC(=O)[C@H](CC(=O)O)NC(=O)[C@@H]2CCCN2C1=O [compound 836] (H-DCLGAFRKCIPDADKCCRPNLVCSRTHRWCKYVF-OH; disulfide 2-17, 9-23, 16-30)
[1]; use-dependent block, hNav1.7
  IC50: 4100 nM
[2]; [4]
  IC50: > 5 µM
[3]; use-dependent block, hNav1.3
  IC50: 1300 nM

## CC[C@H](C)[C@@H]1NC(=O)[C@@H]2CSSC[C@@H]3NC(=O)[C@H](C(C)C)NC(=O)[C@H](CC(C)C)NC(=O)[C@H](CC(N)=O)NC(=O)[C@@H]4CCCN4C(=O)[C@H](CCCNC(=N)N)NC(=O)[C@H](CSSC[C@H](NC(=O)[C@@H](N)[C@@H](C)O)C(=O)N[C@@H](CC(C)C)C(=O)NCC(=O)N[C@@H](Cc4ccccc4)C(=O)N[C@@H](CCSC)C(=O)N[C@@H](CCCNC(=N)N)C(=O)N[C@@H](CCCCN)C(=O)N2)NC(=O)[C@H](CSSC[C@@H](C(=O)N[C@@H](CCCCN)C(=O)N[C@@H](Cc2ccc(O)cc2)C(=O)N[C@H](C(=O)N[C@@H](Cc2ccccc2)C(N)=O)C(C)C)NC(=O)[C@H](Cc2c[nH]c4ccccc24)NC(=O)[C@H](CCCCN)NC(=O)[C@H](Cc2c[nH]cn2)NC(=O)[C@H]([C@@H](C)O)NC(=O)[C@H](CCCNC(=N)N)NC(=O)[C@H](CO)NC3=O)NC(=O)[C@H](CCCCN)NC(=O)[C@H](CC(=O)O)NC(=O)[C@H](CC(N)=O)NC(=O)[C@H](CC(=O)O)NC(=O)[C@@H]2CCCN2C1=O [SEQ ID NO: 192] (H-TCLGFMRKCIPDNDKCCRPNLVCSRTHKWCKYVF-NH2; disulfide 2-17, 9-23, 16-30)
[1]; [7]
  IC50: 110 nM
[2]; [8]
  IC50: 9.21 µM
[3]; [7]
  IC50: 70 nM

## CC[C@H](C)[C@@H]1NC(=O)[C@@H]2CSSC[C@@H]3NC(=O)[C@H](C(C)C)NC(=O)[C@H](CC(C)C)NC(=O)[C@H](CC(N)=O)NC(=O)[C@@H]4CCCN4C(=O)[C@H](CCCNC(=N)N)NC(=O)[C@H](CSSC[C@H](NC(=O)[C@@H](N)CC(=O)O)C(=O)N[C@@H](CC(C)C)C(=O)NCC(=O)N[C@@H](C)C(=O)N[C@@H](CC(C)C)C(=O)N[C@@H](CCCNC(=N)N)C(=O)N[C@@H](CCCCN)C(=O)N2)NC(=O)[C@H](CSSC[C@@H](C(=O)N[C@@H](CCCCN)C(=O)N[C@@H](Cc2ccc(O)cc2)C(=O)N[C@H](C(=O)N[C@@H](Cc2ccccc2)C(=O)O)C(C)C)NC(=O)[C@H](Cc2c[nH]c4ccccc24)NC(=O)[C@H](CC(C)C)NC(=O)[C@H](Cc2c[nH]cn2)NC(=O)[C@H]([C@@H](C)O)NC(=O)[C@H](CCCNC(=N)N)NC(=O)[C@H](CO)NC3=O)NC(=O)[C@H](CCCCN)NC(=O)[C@H](CC(=O)O)NC(=O)[C@H](CC(N)=O)NC(=O)[C@H](CC(=O)O)NC(=O)[C@@H]2CCCN2C1=O [compound 856] (H-DCLGALRKCIPDNDKCCRPNLVCSRTHLWCKYVF-OH; disulfide 2-17, 9-23, 16-30)
[1]; use-dependent block, hNav1.7
  IC50: 4100 nM
[2]; [4]
  IC50: > 5 µM
[3]; use-dependent block, hNav1.3
  IC50: 4100 nM

## CC[C@H](C)[C@@H]1NC(=O)[C@@H]2CSSC[C@@H]3NC(=O)[C@H](C(C)C)NC(=O)[C@H](CC(C)C)NC(=O)[C@H](CC(N)=O)NC(=O)[C@@H]4CCCN4C(=O)[C@H](CCCNC(=N)N)NC(=O)[C@H](CSSC[C@H](NC(=O)[C@@H](N)CC(=O)O)C(=O)N[C@@H](CC(C)C)C(=O)NCC(=O)N(C)[C@@H](Cc4c[nH]c5ccccc45)C(=O)N[C@@H](CCSC)C(=O)N[C@@H](CCCNC(=N)N)C(=O)N[C@@H](CCCCN)C(=O)N2)NC(=O)[C@H](CSSC[C@@H](C(=O)N[C@@H](CCCCN)C(=O)N[C@@H](Cc2ccc(O)cc2)C(=O)N[C@H](C(=O)N[C@@H](Cc2ccccc2)C(N)=O)C(C)C)NC(=O)[C@H](Cc2c[nH]c4ccccc24)NC(=O)[C@H](CCCCN)NC(=O)[C@H](Cc2c[nH]cn2)NC(=O)[C@H]([C@@H](C)O)NC(=O)[C@H](CCCNC(=N)N)NC(=O)[C@H](CO)NC3=O)NC(=O)[C@H](CCCCN)NC(=O)[C@H](CC(=O)O)NC(=O)[C@H](CC(N)=O)NC(=O)[C@H](CC(=O)O)NC(=O)[C@@H]2CCCN2C1=O [SEQ ID NO: 274]
[1]; [7]
  IC50: 190 nM
[2]; [8]
  IC50: > 5 µM
[3]; [7]
  IC50: 150 nM

## CC[C@H](C)[C@@H]1NC(=O)[C@@H]2CSSC[C@@H]3NC(=O)[C@H](C(C)C)NC(=O)[C@H](CC(C)C)NC(=O)[C@H](CC(N)=O)NC(=O)[C@@H]4CCCN4C(=O)[C@H](CCCNC(=N)N)NC(=O)[C@H](CSSC[C@H](NC(=O)[C@@H](N)CC(=O)O)C(=O)N[C@@H](CC(C)C)C(=O)NCC(=O)N[C@@H](C)C(=O)N[C@@H](CCSC)C(=O)N[C@@H](CCCNC(=N)N)C(=O)N[C@@H](CCCCN)C(=O)N2)NC(=O)[C@H](CSSC[C@@H](C(=O)N[C@@H](CCCCN)C(=O)N[C@@H](Cc2ccc(O)cc2)C(=O)N[C@H](C(=O)N[C@@H](Cc2ccccc2)C(N)=O)C(C)C)NC(=O)[C@H](Cc2c[nH]c4ccccc24)NC(=O)[C@H](CCCCN)NC(=O)[C@H](CCC(=O)O)NC(=O)[C@H]([C@@H](C)O)NC(=O)[C@H](CCCNC(=N)N)NC(=O)[C@H](CO)NC3=O)NC(=O)[C@H](CCCCN)NC(=O)[C@H](CC(=O)O)NC(=O)[C@H](CC(N)=O)NC(=O)[C@H](CC(=O)O)NC(=O)[C@@H]2CCCN2C1=O [compound 788] (H-DCLGAMRKCIPDNDKCCRPNLVCSRTEKWCKYVF-NH2; disulfide 2-17, 9-23, 16-30)
[1]; use-dependent block, hNav1.7
  IC50: > 5000 nM
[2]; [4]
  IC50: 29.7 µM
[3]; use-dependent block, hNav1.3
  IC50: > 5000 nM

## CCCC[C@@H]1NC(=O)CNC(=O)[C@H](CC(C)C)NC(=O)[C@@H](NC(=O)[C@@H](N)CC(=O)O)CSSC[C@@H]2NC(=O)[C@@H]3CSSC[C@@H](C(=O)N[C@@H](CCCCN)C(=O)N[C@@H](Cc4ccc(O)cc4)C(=O)N[C@H](C(=O)N[C@@H](Cc4ccccc4)C(N)=O)C(C)C)NC(=O)[C@H](Cc4c[nH]c5ccccc45)NC(=O)[C@H](CCCCN)NC(=O)[C@H](Cc4c[nH]cn4)NC(=O)[C@H]([C@@H](C)O)NC(=O)[C@H](CCCNC(=N)N)NC(=O)[C@H](CO)NC(=O)[C@H](CSSC[C@H](NC(=O)[C@H](CCCCN)NC(=O)[C@H](CCCNC(=N)N)NC(=O)[C@H](CCSC)NC1=O)C(=O)N[C@@H]([C@@H](C)CC)C(=O)N1CCC[C@H]1C(=O)N[C@@H](CC(=O)O)C(=O)N[C@@H](CC(N)=O)C(=O)N[C@@H](CC(=O)O)C(=O)N[C@@H](CCCCN)C(=O)N3)NC(=O)[C@H](C(C)C)NC(=O)[C@H](CC(C)C)NC(=O)[C@H](CC(N)=O)NC(=O)[C@@H]1CCCN1C(=O)[C@H](CCCNC(=N)N)NC2=O [compound 651]
[1]; [5]
  IC50: 77 nM
[2]; IWQ Use Nav1.5
  IC50: > 5 µM
[3]; [6]
  IC50: 170 nM
